Test results reported in paper PMC12030043, “Preparation and Therapeutic Evaluation of Engineered Semaglutide and Statin–Lipid Conjugate-Based Nanoparticle” (Pharmaceutics, 2025).

What was measured:
[1] = tested on: high-fat diet (HFD)-fed mouse model; assay: Oral glucose tolerance test (OGTT) in HFD-fed mice; assay type: in vivo, C57BL/6 mice; conditions: day 64, 19 h fasting, oral glucose 2 g/kg, 0-180 min, glucometer, n = 3; RO 0.5 mg/kg, RLC 1 mg/kg, SRLC NPs 1.1 mg/kg s.c.
Procedure: (§1) All animal experiments were conducted under the standard regulations of the Institutional Animal Care and Use Committee (IACUC) at Konkuk University (ref. no. KU22078-1). The animals were housed in a controlled environment with regulated temperature and humidity, maintained under a 12 h light–dark cycle. Obesity was induced in 5-week-old male C57BL/6 mice through dietary control for 69 days. A total of 25 mice were used and divided into five experimental groups: negative control (regular diet, RD), positive control (high-fat diet, HFD), RO (0.5 mg/kg), RLC (1 mg/kg), and SRLC NPs (1.1 mg/kg). The RO dose was set at half that of RLC due to its molecular weight being approximately twice that of RLC, ensuring equivalent molar exposure. Additionally, the SRLC NP dose was adjusted to 1.1 mg/kg as it comprised 1 mg of RLC and 0.1 mg of semaglutide, allowing for the accurate comparison of therapeutic effects. While the RD group received a normal diet, the other groups were fed a high-fat diet (HFD) consisting of 60 kcal% fat (D12492, Research Diets, New Brunswick, NJ, USA). The body weights of the mice were measured weekly. Starting from day 28 of the dietary intervention, each group received their respective substances via subcutaneous injection every three days. […] Blood glucose levels were then measured at time intervals of 0, 15, 30, 60, 90, 120, and 180 min (n = 3).

[2] = tested on: high-fat diet (HFD)-fed mouse model; assay: Anti-obesity effect (body weight) in high-fat diet (HFD)-fed mouse model; assay type: in vivo; conditions: HFD-fed C57BL/6 mice, day 69, s.c. every three days from day 28; RO 0.5 mg/kg, SRLC NPs 1.1 mg/kg; mean ± S.D., n = 5
Procedure: as §1

[3] = tested on: high-fat diet (HFD)-fed mouse model; assay: Histopathology (H&E and oil red O staining) of liver and adipose tissue in HFD-fed mice; assay type: in vivo, C57BL/6 mice; conditions: for lipid staining and fat droplet accumulation in liver tissue (in words): H&E and ORO staining; for lipid staining and fat droplet accumulation in liver tissue (in words) / quantification of ORO staining: RO 0.5, RLC 1, SRLC NPs 1.1 mg/kg s.c.; for diameter of the adipocyte in sWAT: HFD group 60.32 ± 6.95 µm; for diameter of the adipocyte in sWAT / diameter of the adipocyte in eWAT: n = 7; for diameter of the adipocyte in eWAT: HFD group 64.12 ± 12.51 µm; for area of the adipocyte in sWAT: HFD group 78.86 ± 1.38%; for quantification of ORO staining: liver tissue, HFD group = 100.00 ± 15.00%
Procedure: All animal experiments were conducted under the standard regulations of the Institutional Animal Care and Use Committee (IACUC) at Konkuk University (ref. no. KU22078-1). The animals were housed in a controlled environment with regulated temperature and humidity, maintained under a 12 h light–dark cycle. Obesity was induced in 5-week-old male C57BL/6 mice through dietary control for 69 days. A total of 25 mice were used and divided into five experimental groups: negative control (regular diet, RD), positive control (high-fat diet, HFD), RO (0.5 mg/kg), RLC (1 mg/kg), and SRLC NPs (1.1 mg/kg). The RO dose was set at half that of RLC due to its molecular weight being approximately twice that of RLC, ensuring equivalent molar exposure. Additionally, the SRLC NP dose was adjusted to 1.1 mg/kg as it comprised 1 mg of RLC and 0.1 mg of semaglutide, allowing for the accurate comparison of therapeutic effects. While the RD group received a normal diet, the other groups were fed a high-fat diet (HFD) consisting of 60 kcal% fat (D12492, Research Diets, New Brunswick, NJ, USA). The body weights of the mice were measured weekly. Starting from day 28 of the dietary intervention, each group received their respective substances via subcutaneous injection every three days. Five days before the end of the experiment, an oral glucose tolerance test (OGTT) was conducted to assess glucose sensitivity. After 19 h of fasting, all experimental groups were administered a glucose solution orally (2 g/kg). Blood glucose levels were then measured at time intervals of 0, 15, 30, 60, 90, 120, and 180 min (n = 3). Blood glucose levels were assessed using a glucometer (G CARE, GC Medical Science, Yongin, Republic of Korea). On the final day of the experiment, after 14 h of fasting, the mice were anesthetized via intraperitoneal administration of 2,2,2-tribromoethanol (TBE), and blood samples were collected. Hepatotoxicity and lipid profiling analyses were conducted using the collected blood samples, while liver tissues were subjected to hematoxylin and eosin (H&E) and oil red O (ORO) staining for further evaluation. All analyses were performed by KP&T Technology (Cheongju, Republic of Korea).
Representative images of mice from the HFD group and the SRLC NPs-treated group on the final day of the experiment are shown in Figure 9A. To evaluate the pathological changes at the tissue level and the therapeutic effects of SRLC NPs, hematoxylin and eosin (H&E) staining and oil red O (ORO) staining were performed (Figure 9B). These staining analyses were conducted to confirm the reduction in hepatic fat accumulation and assess adipose tissue remodeling following SRLC NPs treatment. […] The area of the adipocyte in sWAT (n = 4) was as follows: HFD, 78.86 ± 1.38%; RO, 77.51 ± 2.52%; RLC, 72.72 ± 2.75%; and SRLC NPs, 47.45 ± 1.03% (Figure 9E). The diameter of the adipocyte in eWAT (n = 7) was the following: HFD, 64.12 ± 12.51 µm; RO, 59.53 ± 6.42 µm; RLC, 57.01 ± 7.04 µm; and SRLC NPs, 33.79 ± 3.62 µm (Figure 9F). The area of the adipocyte in eWAT (n = 4) was as follows: HFD, 76.44 ± 1.91%; RO, 79.30 ± 1.91%; RLC, 79.223 ± 1.53%; and SRLC NPs, 63.28 ± 2.94% (Figure 9G).

[4] = Zeta potential measurement; assay type: physicochemical; conditions: Zetasizer Nano; RLC alone and semaglutide–RLC (1:10) formulation; mean ± S.D.
Procedure: (§2) To determine the optimal formulation and final composition of the semaglutide–RLC nanoparticles (SRLC NPs), a precipitation evaluation experiment was conducted using various mass ratios (1:10, 1:20, 1:30, w/w) of semaglutide to RLC. Based on stability and particle size analysis, the 1:10 ratio was selected as the optimal formulation, and this ratio was maintained in the final product composition to ensure consistency in therapeutic efficacy and physicochemical properties. The resulting mixture was used immediately without undergoing a separate freeze-drying process. For nanoparticle preparation, semaglutide ([…]) was dissolved in 1 mL of DW, while RLC ([…]) was dissolved in 1 mL of DMSO. […] The stability of each formulation was assessed by measuring particle size at multiple time points (0, 0.5, 1, 2, 3, 4, and 5 days) using dynamic light scattering (DLS; Zetasizer Nano, Malvern Instruments, Worcestershire, UK). The zeta potential of both RLC alone and the semaglutide–RLC (1:10) formulation was also measured to evaluate the surface charge and colloidal stability of the nanoparticles. Additionally, in vivo stability was evaluated by preparing 1 mL of Dulbecco’s phosphate-buffered saline (DPBS) containing 10% fetal bovine serum (FBS) and 5% DMSO, followed by particle size measurements at different time points (0, 0.5, 1, and 2 days). […]

fibroblast cells = assay: Cytotoxicity assay in fibroblast cells (EZ-Cytox); assay type: cell-based; conditions: 100 µg/mL, 24 h, absorbance 450 nm/600 nm, relative to untreated control, mean ± S.D., n = 5
Procedure: The cytotoxicity of the RLC and SRLC nanoparticles was evaluated using fibroblast cells obtained from the Korean Cell Line Bank (Seoul, Republic of Korea). The fibroblast cells were cultured in high-glucose Dulbecco’s modified Eagle’s medium (DMEM) supplemented with 10% (v/v) fetal bovine serum (FBS) and 1% antibiotic–antimycotic solution. The cells were then seeded into a 96-well culture plate at a density of 1.0 × 10^4 cells per well and incubated for 1 h at 37 °C in a humidified atmosphere containing 5% CO2 to allow stabilization. Following stabilization, the cells were treated with RLC and SRLC nanoparticles at concentrations ranging from 0.1 to 100 […] for 24 h. Cell viability (n = 5) was evaluated using the EZ-Cytox cell viability assay kit, with absorbance readings taken at 450 nm and 600 nm using a microplate reader (SPECTROstar Nano, BMG LABTECH, Ortenberg, Germany). The viability of the treated cells was determined by comparing the UV absorbance values of the samples to those of the untreated control group.
To evaluate the cytotoxic effects of SRLC NPs, a cytotoxicity assay was performed using fibroblast cells at concentrations ranging from 0.1 to 100 µg/mL (Figure 6A).

[5] = Particle size by dynamic light scattering (DLS) in aqueous solution; assay type: physicochemical; conditions: 1 mL distilled water containing 5% DMSO, semaglutide fixed at 0.1 mg, semaglutide alone 0.1 mg/mL, RLC alone 1 mg/mL, mean ± S.D., n = 3
Procedure: as §2

[6] = conventional semaglutide formulations; ref [11],[12]; cited from earlier work
Source text: Obesity and non-alcoholic fatty liver disease (NAFLD) have emerged as critical health concerns in modern society, closely linked to diabetes, cardiovascular diseases, and metabolic syndrome. As one of the most rapidly increasing metabolic disorders worldwide, there is a continuous demand for the development of effective therapeutic agents and treatment strategies.

Row | zeta potential [4] [mV] | particle size [5] [nm] | Compound | blood glucose response in OGTT (in words) [1] | body weight at the end of the experiment [2] [g] | lipid staining and fat droplet accumulation in liver tissue (in words) [3] | diameter of the adipocyte in sWAT ([3]; H&E, mean ± S.D.) [µm] | diameter of the adipocyte in eWAT ([3]; H&E, mean ± S.D.) [µm] | area of the adipocyte in eWAT ([3]; H&E, HFD group 76.44 ± 1.91%, mean ± S.D., n = 4) [%] | area of the adipocyte in sWAT ([3]; H&E, mean ± S.D., n = 4) [%] | quantification of ORO staining ([3]; mean ± S.D., n = 4) [%] | cell viability (fibroblast cells) [%] | oral bioavailability [6]
1 | – | – | CC(C)c1nc(N(C)S(C)(=O)=O)nc(-c2ccc(F)cc2)c1/C=C/[C@@H](O)C[C@@H](O)CC(=O)O [RO, Rosuvastatin calcium] | sharp increase in blood glucose levels immediately after administration, followed by a gradual decline | 36.20 ± 2.34 | abnormal fat droplet accumulation | 51.20 ± 8.99 | 59.53 ± 6.42 | 79.30 ± 1.91 | 77.51 ± 2.52 | 70.50 ± 8.02 | – | –
2 | −22.08 ± 0.48 | 613.30 ± 26.86 | CC(C)c1nc(N(C)S(C)(=O)=O)nc(-c2ccc(F)cc2)c1C=CC(O)CC(O)CC(=O)NCCNC(=O)CCC(C)C1CCC2C3C(O)CC4CC(O)CCC4(C)C3CCC12C (stereo not drawn) [RLC] | sharp increase in blood glucose levels immediately after administration, followed by a gradual decline | – | abnormal fat droplet accumulation | 49.79 ± 7.09 | 57.01 ± 7.04 | – | 72.72 ± 2.75 | 49.50 ± 9.53 | 85.60 ± 2.87 | –
3 | – | – | CC[C@H](C)[C@H](NC(=O)[C@H](Cc1ccccc1)NC(=O)[C@H](CCC(=O)O)NC(=O)[C@H](CCCCNC(=O)COCCOCCNC(=O)COCCOCCNC(=O)CC[C@H](NC(=O)CCCCCCCCCCCCCCCCC(=O)O)C(=O)O)NC(=O)[C@H](C)NC(=O)[C@H](C)NC(=O)[C@H](CCC(N)=O)NC(=O)CNC(=O)[C@H](CCC(=O)O)NC(=O)[C@H](CC(C)C)NC(=O)[C@H](Cc1ccc(O)cc1)NC(=O)[C@H](CO)NC(=O)[C@H](CO)NC(=O)[C@@H](NC(=O)[C@H](CC(=O)O)NC(=O)[C@H](CO)NC(=O)[C@@H](NC(=O)[C@H](Cc1ccccc1)NC(=O)[C@@H](NC(=O)CNC(=O)[C@H](CCC(=O)O)NC(=O)C(C)(C)NC(=O)[C@@H](N)Cc1cnc[nH]1)[C@@H](C)O)[C@@H](C)O)C(C)C)C(=O)N[C@@H](C)C(=O)N[C@@H](Cc1c[nH]c2ccccc12)C(=O)N[C@@H](CC(C)C)C(=O)N[C@H](C(=O)N[C@@H](CCCNC(=N)N)C(=O)NCC(=O)N[C@@H](CCCNC(=N)N)C(=O)NCC(=O)O)C(C)C [semaglutide] | – | – | – | – | – | – | – | – | – | ~ 1%
